# According to PMC6463685, “WS-5 Extract of Curcuma longa, Chaenomeles sinensis, and Zingiber officinale Contains Anti-AChE Compounds and Improves β-Amyloid-Induced Memory Impairment in Mice” (Evidence-based Complementary and Alternative Medicine : eCAM, 2019):
# Target: T1, acetylcholinesterase (AChE)
# T1 construct: AChE used with commercial BioVision colorimetric AChE assay kit
# Assay: colorimetric AChE kit (choline oxidase/probe), […] nm
# Assay type: biochemical
# Conditions: 37°C, 20 min, AChE substrate 5 mM
SMILES,IC50 (also printed as 17.92 μg/ml) [µM],IC50 (also printed as 10.42 μg/ml) [µM]
CCCCC/C=C/C(=O)CCc1ccc(O)c(OC)c1 [6-Shogaol],64.8,
O=C(O)c1ccc(O)c(O)c1 [Protocatechuic acid],,67.6
